Experimental data taken from patent US7045528B2, “Benzofused heterozryl amide derivatives of thienopyridines useful as therapeutic agents, pharmaceutical compositions including the same, and methods for their use” (Agouron Pharmaceuticals, Inc., priority 2002, dated 2006).
pKi: −log10 of the molar value.

What was measured:
[1] = target: T1, unphosphorylated VEGF-R2Δ50 (FLVK) (Homo sapiens, UniProt P35968, DEL940-989/E990V); test: VEGF-R2 coupled spectrophotometric assay, unphosphorylated VEGF-R2Δ50 (FLVK); assay type: biochemical; details: unphosphorylated VEGF-R2Δ50; for inhibition at 0.05 µM: 50 nM compound, read-out: FLVK (% inh @ 50 nM)
T1 construct: VEGF-R2Δ50 contains residues 806–939 and 990–1171; made in house; host or cells: baculovirus/insect cell system
Text: VEGF-R2 Construct for Assay:
This construct determines the ability of a test compound to inhibit tyrosine kinase activity. A construct (VEGF-R2Δ50) of the cytosolic domain of human vascular endothelial growth factor receptor 2 (VEGF-R2) lacking the 50 central residues of the 68 residues of the kinase insert domain was expressed in a baculovirus/insect cell system. Of the 1356 residues of full-length VEGF-R2, VEGF-R2Δ50 contains residues 806–939 and 990–1171, and also one point mutation (E990V) within the kinase insert domain relative to wild-type VEGF-R2. Autophosphorylation of the purified construct was performed by incubation of the enzyme at a concentration of 4 μM in the presence of 3 mM ATP and 40 mM MgCl2 in 100 mM HEPES, pH 7.5, containing 5% glycerol and 5 mM DTT, at 4° C. for 2 h. […] See Parast et al., Biochemistry, 37, 16788–16801 (1998).
Coupled Spectrophotometric (FLVK-P) Assay
The production of ADP from ATP that accompanies phosphoryl transfer was coupled to oxidation of NADH using phosphoenolpyruvate (PEP) and a system having pyruvate kinase (PK) and lactic dehydrogenase (LDH). The oxidation of NADH was monitored by following the decrease of absorbance at 340 nm (e340=6.22 cm^−1 mM^−1) using a Beckman DU 650 spectrophotometer. Assay conditions for phosphorylated VEGF-R2Δ50 (indicated as FLVK-P in the tables below) were the following: 1 mM PEP; 250 μM NADH; 50 units of LDH/mL; 20 units of PK/mL; 5 mM DTT; 5.1 mM poly(E4Y1); 1 mM ATP; and 25 mM MgCl2 in 200 mM HEPES, pH 7.5. Assay conditions for unphosphorylated VEGF-R2Δ50 (indicated as FLVK in the tables) were the following: 1 mM PEP; 250 μM NADH; 50 units of LDH/mL; 20 units of PK/mL; 5 mM DTT; 20 mM poly(E4Y1); 3 mM ATP; and 60 mM MgCl2 and 2 mM MnCl2 in 200 mM HEPES, pH 7.5. Assays were initiated with 5 to 40 nM of enzyme. Ki values were determined by measuring enzyme activity in the presence of varying concentrations of test compounds. […] The binding inhibitions were fitted to equation as described by Morrison. The data were analyzed using Enzyme Kinetic and Kaleidagraph software.

[2] = test system: human umbilical vein endothelial cells (HUVEC); test: HUVEC+VEGF proliferation assay; assay type: cell-based; details: Homo sapiens, HUVEC; VEGF 6 ng/mL, 72 h, MTT
Protocol: HUVEC+VEGF Proliferation Assay
This assay determines the ability of a test compound to inhibit the growth factor-stimulated proliferation of human umbilical vein endothelial cells (“HUVEC”). HUVEC cells (passage 3–4; Clonetics, Corp.) were thawed into EGM2 culture medium (Clonetics Corp) in T75 flasks. Fresh EGM2 medium was added to the flasks 24 hours later. Four or five days later, cells were exposed to another culture medium (F12K medium supplemented with 10% fetal bovine serum (FBS), 60 μg/mL endothelial cell growth supplement (ECGS), and 0.1 mg/mL heparin). Exponentially-growing HUVEC cells were used in experiments thereafter. Ten to twelve thousand HUVEC cells were plated in 96-well dishes in 100 μl of rich, culture medium (described above). The cells were allowed to attach for 24 hours in this medium. The medium was then removed by aspiration and 105 μl of starvation media (F12K+1% FBS) was added to each well. After 24 hours, 15 μl of test agent dissolved in 1% DMSO in starvation medium or this vehicle alone was added into each treatment well; the final DMSO concentration was 0.1%. One hour later, 30 μl of VEGF (30 ng/mL) in starvation media was added to all wells except those containing untreated controls; the final VEGF concentration was 6 ng/mL. Cellular proliferation was quantified 72 hours later by MTT dye reduction, at which time cells were exposed for 4 hours MTT (Promega Corp.). Dye reduction was stopped by addition of a stop solution (Promega Corp.) and absorbance at 595 nm was determined on a 96-well spectrophotometer plate reader.

PDGFRβ = target: T2, PDGFRβ (Homo sapiens, UniProt P09619); test: PAE-PDGFRβ phosphorylation in PAE-PDGFRB cells assay; assay type: cell-based; details: PAE cells overexpressing human PDGFRβ, PDGF-BB stimulated; read-out: PAE PDGFR autophos IC50 (nM) AVG
T2 construct: expressed in transfected cells; host or cells: porcine aorta endothelial (PAE)-PDGFRβ cells
Protocol: PAE-PDGFRβ Phosphorylation in PAE-PDGFRB Cells Assay
This assay determines the ability of a test compound to inhibit the autophosphorylation of PDGFRβ in porcine aorta endothelial (PAE)-PDGFRβ cells. PAE cells that overexpress human PDGFRβ were used in this assay. The cells were cultured in Ham's F12 media supplemented with 10% fetal bovine serum (FBS) and 400 ug/ml G418. Twenty thousands cells were seeded in each well of a 96-well plate in 50 μL of growth media and allowed to attach for 6 hours at 37° C. Cells were then exposed to the starvation media (Ham's F12 media supplemented with 0.1% FBS) for 16 hours. After the starvation period was over, 10 μL of test agent in 5% DMSO in starvation media were added to the test wells and 10 μL of the vehicle (5% DMSO in starvation media) were added into the control wells. The final DMSO concentration in each well was 0.5%. Plates were incubated at 37° C. for 1 hour and the cells were then stimulated with 1 μg/mL PDGF-BB (R & D System) in the presence of 2 mM Na3VO4 for 8 minutes. The cells were washed once with 1 mm Na3VO4 in HBSS and lysed by adding 50 μL per well of lysis buffer. One hundred μL of dilution buffer were then added to each well and the diluted cell lysate was transferred to a 96-well goat ant-rabbit coated plate (Pierce), which was pre-coated with Rabbit anti Human PDGFRβ antibody (Santa Cruz). The plates were incubated at room temperature for 2 hours and washed seven times with 1% Tween 20 in PBS. HRP-PY20 (Santa Cruz) was diluted and added to the plate for a 30-minute incubation. Plates were then washed again and TMB peroxidase substrate (Kirkegaard & Perry) was added for a 10-minute incubation. One hundred μL of 0.09 N H2SO4 was added into each well of the 96-well plate to stop the reaction. Phosphorylation status was assessed by spectrophotometer reading at 450 nm. IC50 values were calculated by curve fitting using a four-parameter analysis.

T1 sequence (P35968 with tags, fused parts or gaps DEL940-989/E990V limits assumed): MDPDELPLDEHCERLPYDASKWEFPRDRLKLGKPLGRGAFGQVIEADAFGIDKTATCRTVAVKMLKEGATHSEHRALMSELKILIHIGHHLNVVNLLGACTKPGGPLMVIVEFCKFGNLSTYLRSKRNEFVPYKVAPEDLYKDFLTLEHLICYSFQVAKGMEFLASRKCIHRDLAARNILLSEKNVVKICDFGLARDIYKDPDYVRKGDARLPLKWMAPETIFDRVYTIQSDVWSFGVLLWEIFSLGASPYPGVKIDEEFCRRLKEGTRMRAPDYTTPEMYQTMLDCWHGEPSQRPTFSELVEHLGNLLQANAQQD
T2 sequence (P09619 33-1106): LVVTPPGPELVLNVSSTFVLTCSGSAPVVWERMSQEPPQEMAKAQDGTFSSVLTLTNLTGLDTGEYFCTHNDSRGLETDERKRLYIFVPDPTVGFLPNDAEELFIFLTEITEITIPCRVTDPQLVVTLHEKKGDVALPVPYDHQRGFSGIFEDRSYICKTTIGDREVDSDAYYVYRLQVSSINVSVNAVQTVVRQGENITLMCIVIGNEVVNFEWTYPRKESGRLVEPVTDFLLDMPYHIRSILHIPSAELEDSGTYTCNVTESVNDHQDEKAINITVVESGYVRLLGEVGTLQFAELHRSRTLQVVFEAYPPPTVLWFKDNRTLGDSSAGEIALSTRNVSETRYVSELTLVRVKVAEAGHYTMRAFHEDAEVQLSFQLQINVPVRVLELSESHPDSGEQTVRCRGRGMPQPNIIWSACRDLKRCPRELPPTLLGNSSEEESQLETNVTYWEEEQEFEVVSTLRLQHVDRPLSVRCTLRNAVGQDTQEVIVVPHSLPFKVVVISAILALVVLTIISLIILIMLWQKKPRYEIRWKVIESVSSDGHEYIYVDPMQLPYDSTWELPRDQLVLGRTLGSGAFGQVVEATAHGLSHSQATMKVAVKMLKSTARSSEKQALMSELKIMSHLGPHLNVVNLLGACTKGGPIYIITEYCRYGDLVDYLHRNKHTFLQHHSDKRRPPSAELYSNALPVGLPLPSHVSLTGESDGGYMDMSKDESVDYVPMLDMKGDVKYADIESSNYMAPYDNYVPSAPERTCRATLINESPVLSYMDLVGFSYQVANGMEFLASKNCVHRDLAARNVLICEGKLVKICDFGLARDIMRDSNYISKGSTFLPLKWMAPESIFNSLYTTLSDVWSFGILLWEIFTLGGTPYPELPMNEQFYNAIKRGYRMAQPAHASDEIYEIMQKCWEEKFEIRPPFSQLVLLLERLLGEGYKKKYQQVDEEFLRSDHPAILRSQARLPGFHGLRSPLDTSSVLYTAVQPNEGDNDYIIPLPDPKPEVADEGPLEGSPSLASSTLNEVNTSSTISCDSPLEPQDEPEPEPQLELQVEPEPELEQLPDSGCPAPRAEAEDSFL

| inhibition at 0.05 µM [1] | pKi [1] | IC50 (PDGFRβ) | SMILES | IC50 [2] |
| --- | --- | --- | --- | --- |
| 62% | 8.31 | 31 nM | Cc1c(C(=O)NCC2CC2)c2ccc(Oc3ccnc4cc(-c5nccn5C)sc34)cc2n1C [Example 55, N-(Cyclopropylmethyl)-1,2-dimethyl-6-{[2-(1-methyl-1H-imidazol-2-yl)thieno[3,2-b]pyridin-7-yl]oxy}-1H-indole-3-carboxamide] | 5.8 nM |
| 68% | 8.19 | – | CNCC1CCN(C(=O)c2cc3nccc(Oc4ccc5c(C(=O)NC)c(C)n(C)c5c4)c3s2)C1 (stereo not drawn) [Example 46, 1,2-Dimethyl-6-[2-(3-methylaminomethyl-pyrrolidine-1-carbonyl)-thieno[3,2-b]pyridin-7-yloxy]-1H-indole-3-carboxylic acid methylamide] | 3.13 nM |
| 86% | 9.42 | 127 nM | CCc1oc2cc(Oc3ccnc4cc(C(=O)N5CCC5)sc34)ccc2c1C(=O)NC [Example 98, 6-[2-(Azetidine-1-carbonyl)-thieno[3,2-b]pyridin-7-yloxy]-2-ethyl-benzofuran-3-carboxylic acid methylamide] | 9.4 nM |
| 74% | 8.58 | 229 nM | CO[C@@H]1CCN(C(=O)c2cc3nccc(Oc4ccc5c(C(=O)NCCO)c(C)sc5c4)c3s2)C1 [Example 123, 6-[(2-{[(3R)-3-Methoxypyrrolidin-1-yl]carbonyl}thieno[3,2-b]pyridin-7-yl)oxy]-2-methylbenzo[b]thiophene-3-carboxylic acid 2-hydroxyethylamide] | 10 nM |
| 64% | 8.33 | 26.9 nM | CNC(=O)c1c(C)n(C)c2cc(Oc3ccnc4cc(C(=O)N5CCC(CN)C5)sc34)ccc12 (stereo not drawn) [Example 45, 6-[2-(3-Aminomethyl-pyrrolidine-1-carbonyl)-thieno[3,2-b]pyridin-7-yloxy]-1,2-dimethyl-1H-indole-3-carboxylic acid methylamide] | 10 nM |
| 12% | 7.33 | 61 nM | CNC(=O)c1c(C)n(C)c2cc(Oc3ccnc4cc(-c5cncnc5)sc34)ccc12 [Example 39, 1,2-Dimethyl-6-(2-pyrimidin-5-yl-thieno[3,2-b]pyridin-7-yloxy)-1H-indole-3-carboxylic acid methylamide] | 8.7 nM |
| 76% | 8.55 | 8.9 nM | CNC(=O)c1c(C)n(C)c2cc(Oc3ccnc4cc(-c5ccccn5)sc34)ccc12 [Example 42, 1,2-Dimethyl-6-(2-pyridin-2-yl-thieno[3,2-b]pyridin-7-yloxy)-1H-indole-3-carboxylic acid methylamide] | 4.34 nM |
| 81% | 8.84 | 17.9 nM | Cc1oc2cc(Oc3ccnc4cc(C(=O)N5CCC[C@H]5CO)sc34)ccc2c1C(=O)NCC(C)C [Example 86, 2-Methyl-6-[2-(2-hydroxymethyl-pyrrolidine-1-carbonyl)-thieno[3,2-b]pyridin-7-yloxy]-benzofuran-3-carboxylic acid isobutyl amide] | 3.07 nM |
| 34% | 7.56 | – | CCC(=O)c1cc2nccc(Oc3ccc4c(C(=O)NC)c(C)n(C)c4c3)c2s1 [Example 51, 1,2-Dimethyl-6-(2-propionyl-thieno[3,2-b]pyridin-7-yloxy)-1H-indole-3-carboxylic acid methylamide] | 82 nM |
| 88% | 8.93 | 609 nM | CCc1sc2cc(Oc3ccnc4cc(C(=O)N5CC[C@@H](O)C5)sc34)ccc2c1C(=O)NC [Example 136, 2-Ethyl-6-[(2-{[(3R)-3-hydroxypyrrolidin-1-yl]carbonyl}thieno[3,2-b]pyridin-7-yl)oxy]benzo[b]thiophene-3-carboxylic acid methylamide] | 10 nM |
| 67% | 8.49 | – | CNC(=O)c1csc(-c2cc3nccc(Oc4ccc5c(C(=O)NC)c(C)n(C)c5c4)c3s2)n1 [Example 43, 1,2-Dimethyl-6-[2-(4-methylcarbamoyl-thiazol-2-yl)-thieno[3,2-b]pyridin-7-yloxy]-1H-indole-3-carboxylic acid methylamide] | 10 nM |
| 67% | 7.80 | – | CNC(=O)c1c(C)n(C)c2cc(Oc3ccnc4cc(-c5cccc(OC)n5)sc34)ccc12 [Example 49, 6-[2-(6-Methoxy-pyridin-2-yl)-thieno[3,2-b]pyridin-7-yloxy]-1,2-dimethyl-1H-indole-3-carboxylic acid methylamide] | 7 nM |
| 75% | 8.28 | 90.7 nM | Cc1c(C(=O)NC(C)C)c2ccc(Oc3ccnc4cc(-c5nccs5)sc34)cc2n1C [Example 66, 1,2-Dimethyl-6-(2-thiazol-2-yl-thieno[3,2-b]pyridin-7-yloxy)-1H-indole-3-carboxylic acid isopropylamide] | 5.8 nM |
| 66% | 8.37 | – | CNC(=O)c1c(C)n(C)c2cc(Oc3ccnc4cc(C(=O)N5C[C@@H](O)[C@@H](O)C5)sc34)ccc12 [Example 37, 6-[2-(3,4-Dihydroxy-pyrrolidine-1-carbonyl)-thieno[3,2-b]pyridin-7-yloxy]-1,2-dimethyl-1H-indole-3-carboxylic acid methylamide] | 10 nM |
